Here are results for 8 molecules from patent US20020183300A1, “Zinc ionophores as anti-stress agents” (priority 2001, published 2002).

The subject of experiment [1] is cultured HUVEC, isolated cardiac myocytes, cultured cerebellar neurons. Nature of the experiment: Zinc ionophore screening with Fura-2 loaded cells (fluorescence ratio 340/380 nm). In kind it is cell-based, human; rabbit; mouse. The note with it: for zinc ionophore activity (slope of Fura-2 fluorescence intensity ratio): zinc-complexed holo-ionophore, 1 μM in superfusion buffer, 37° C.; for ionophore activity compared across cell types: HUVEC, cardiac myocytes, cerebellar neurons. On the procedure: Human umbilical vein endothelial cells (HUVEC) were purchased from Clonetics (San Diego, Calif.) and passages DeKeyser F. G. et al. (2000) Neuroimmunomodulation 7:182-188; Revilla V. et al. Brain Res. Bull 49:413-418; Troullos E. et al. (1997) Clin. Pharmacol. Ther. 62:74-81 were used for these studies. Cells were cultured on flame-sterilzed glass coverslips in Endothelial Basal Medium (Clonetics) supplemented with 10 ng/ml human recombinant epidermal growth factor, 1.0 ug/ml hydrocortisone, 50 ug/ml gentamicin, 50ng/ml amphotetericin B, 12 ug/ml bovine brain extract and 2% v/v fetal bovine serum (all from Clonetics), in a humidified chamber at 37° C. and 5% CO2. To maintain cell populations, proliferating HUVEC were passaged at 80-90% confluency.
Cardiac myocytes were isolated from the ventricular septum of adult rabbit hearts, following collagenase digestion, in a manner similar to that described previously (Turan, B. et al., (1997) Am. J. Physiol. 272:H2095-H2106). The modification consisted of introducing low concentrations of CaCl2 during the perfusion with collagenase and the dispersion of the myocytes. Hearts were perfused for about 2 min by gravity under a hydrostatic pressure of 1 m, with a nominally Ca^2+-free solution containing (in mM): NaCl, 145; KCl, 5; MgSO4, 1.2; Na2HPO4, 1.8; HEPES, 5; glucose, 10; pH adjusted to 7.4 with NaOH. Forty ml of this perfusate were then supplemented with collagenase (1 mg/ml) and perfusion was continued with recirculation. […] The flow rate was then adjusted to 15 ml/min and 50 μM CaCl2 was added to the collagenase solution. Perfusion with this solution was continued for another 15 to 18 min, followed by a 2 min washout of the enzyme with fresh perfusate containing 100 μM CaCl2 and no collagenase. The hearts were then removed from the apparatus and the ventricular septum isolated and minced. Dissociation of the cells was obtained by gentle agitation of the minced tissue in 50 ml of the same perfusing solution. Following filtration through a 200 μm nylon mesh, the cells were allowed to settle and the supernatant was replaced with a solution containing 2 mM CaCl2. Cells were kept at 37° C. in this pre-oxygenated solution and were studied within 8 hours after isolation, cellular viability was ensured by regularly replacing the incubation solution.
Primary cultures of mouse cerebellar granule neurons were obtained from dissociated cerebella of postnatal day 8 or 9 mice according to the following protocol (Cregan et al., (1999) J. Neurosci. 19:7860-7869, incorporated herein by reference). Brains were removed and placed into separate dishes containing solution A (124 mM NaCl, 5.37 mM KCl, 1 mM NaH2 P04, 1.2 mM MgSO4, 14.5 mM D-(1)-glucose, 25 mM HEPES, 3 mg/ml BSA, pH 7.4) in which the cerebella were dissected, meninges removed, and tissue sliced into small pieces. The tissue was briefly centrifuged and transferred to solution A containing 0.25 mg/ml trypsin, then incubated at 37° C. for 18 min. After the addition of 0.082 mg/ml trypsin inhibitor (Boehringer Mannheim, Indianapolis, Ind.) and 0.25 mg/ml DNase I (Boehringer Mannheim), the tissue was incubated at 25° C. for 2 min. After a brief centrifugation, the resulting pellet was gently titrated in solution A yielding suspension that was further incubated for 10 min at 25° C. in solution A containing 2.7 mM MgSO4 and 0.03 mM CaCl2. After a final centrifugation the pellet was resuspended in EMEM media (Sigma, St. Louis, Mo.) containing 10% dialyzed FBS (Sigma), 25 mM KCl, 2 mM glutamine (Life Technologies BRL, Gaithersburg, Md.), 25 mM glucose, and 0.1 mg/ml gentamycin (Sigma) and filtered through a cell strainer (size 70 μm; Falcon). Cells were plated on glass coverslips coated with poly-D-lysine (Sigma) in Nunc fourwell dishes at a density of 1.5×10^6 cells per milliliter of medium. Cytosine-arabinoside (10 μM; Sigma) was added 24 hr after plating.

Another experiment has as its system NF-κB. Nature of the experiment: NF-κB electrophoretic mobility shift assay on brain nuclear extracts, coronary artery ligation model. In kind it is in vivo, rat. The note with it: rats subjected to coronary occlusion 45 min, reperfusion 4 h; i.v. boluses at 0, 1, 2 h postreperfusion; ZnP 1.2 μg/kg, ZnDDC 8.3 ng/kg. On the procedure: (§1) Coronary artery ligation model Male Sprague-Dawley rats (250-300 g) were anesthetized, intubated and ventilated. The chest was opened and the coronary artery was ligated. After 45 min, the suture was released and reperfusion was continued for 4 h. Boluses (0.5 ml) of the zinc ionophores ZnP (1.2 μg/kg) and ZnDDC (8.3 ng/kg) were administered intravenously in 4% DMSO in saline at 0, 1, and 2 h postreperfusion. After 4 h of reperfusion the ligature was retied, and Evans blue dye was infused intravenously to demarcate the area at risk. The rats were then killed by exsanguination and the brain was collected for analysis. Sham-surgery rats were treated in an identical manner but without tying the ligature around the coronary artery.
(§2) Brain samples were homogenized on ice using six slow strokes of a Teflon pestle homogenizer at 1000 rpm in 8 volumes of buffer containing 0.25 M sucrose, 10 mM HEPES, pH 7.6, 25 mM KCl, 1 mM EDTA, 10% glycerol, 0.15 mM spermine, and 0.5 mM spermidine. […] Protein concentrations were determined using the Bio Rad protein assay.
(§3) Double-stranded consensus oligonucleotides for NF-kB and Spl (Promega, Madison, Wis.) were 5 radiolabelled with g[^32P]ATP (Amersham, Arlington Heights, Ill.). […] The intensity of the bands was quantitated with a densitometer and commercially available software (Molecular Analyst, Bio-Rad Laboratories, Hercules, Calif.).
A general note: A gel shift assay detects complexes by their altered migration in electrophoresis.

For another experiment, the system named is Spl. Nature of the experiment: Spl electrophoretic mobility shift assay on brain nuclear extracts, coronary artery ligation model. In kind it is in vivo, rat. Particulars: rats subjected to coronary occlusion 45 min, reperfusion 4 h; ZnDDC 8.3 ng/kg i.v. at 0, 1, 2 h postreperfusion. On the procedure:
as §1, §2, §3

In the case of `CC1=C(/C=C/C(C)=C/C=C/C(C)=C/CO)C(C)(C)CCC1` [Vitamin A (all-trans-retinol), all-trans-retinol], in experiment [1], the zinc-ionophore properties result is “possess zinc-ionophore properties” and the “zinc ionophore activity (slope of Fura-2 fluorescence intensity ratio)” value is “Vitamin A (all-trans-retinol) ✓”.

For `Oc1cccc2cccnc12` [8-Hydroxyquinoline], in experiment [1], the zinc-ionophore properties result was “possess zinc-ionophore properties” and the “zinc ionophore activity (slope of Fura-2 fluorescence intensity ratio)” value is reported as 8-Hydroxyquinoline, ✓.

With `S=C(S)N1CCCC1` [Pyrrolidinedithiocarbamate], the “zinc ionophore activity (slope of Fura-2 fluorescence intensity ratio)” value in experiment [1] is given as “Pyrrolidinedithiocarbamate ✓✓”.

Turning to `CCN(CC)C(=S)SSC(=S)N(CC)CC` [Disulfiram], the “zinc ionophore activity (slope of Fura-2 fluorescence intensity ratio)” value in experiment [1] is “Disulfiram ✓✓”.

Take `CCN(CC)C(=S)S` [ZNDDC, zinc-diethyldithiocarbamate]: the “NF-κB binding activity in the brain” value in the experiment on NF-κB is listed as “restored normal NF-κB binding activity”. Further, in experiment [1], the zinc-ionophore properties result is reported as “possess zinc-ionophore properties”, the “ionophore activity compared across cell types” value was “comparable in all three cell types tested” and the “zinc ionophore activity (slope of Fura-2 fluorescence intensity ratio)” value is “diethyldithiocarbamate ✓✓”. For the same molecule, the “Spl binding activity in the brain (in words)” value in the experiment on Spl was “restored Spl binding activity to normal”.

Take `COc1ccc2c(c1)c(CC(=O)O)c(C)n2C(=O)c1ccc(Cl)cc1` [Indomethacin]: in experiment [1], the “zinc ionophore activity (slope of Fura-2 fluorescence intensity ratio)” value was “Indomethacin ✓”.

On to `Oc1c(I)cc(I)c2cccnc12` [5,7-Diiodo-8-hydroxyquinoline], for which, in experiment [1], the zinc-ionophore properties entry is on record as “possess zinc-ionophore properties”, the “ionophore activity compared across cell types” value was “comparable in all three cell types tested” and the “zinc ionophore activity (slope of Fura-2 fluorescence intensity ratio)” value was 5,7-Diiodo-8-hydroxyquinoline ✓✓.

With `Cc1c(C)c2c(c(C)c1O)CC[C@@](C)(CCC[C@H](C)CCC[C@H](C)CCCC(C)C)O2` [Vitamin E, alpha-tocopherol], the zinc-ionophore properties result in experiment [1] is given as “possess zinc-ionophore properties”.
